What was measured:
Bacillus subtilis = assay: Antimicrobial activity, agar plate-cylinder method; type: cell-based; settings: Cu-free form; bleomycin A2 (Cu-free form) standard assumed 1,000 mcg/mg
Method: (1) Antimicrobial activity against Mycobacterium smegmatis ATCC 697 and Bacillus subtilis.
(§1) The activity was assayed against the above test microorganisms by the method of agar plate-cylinder, assuming the potency of bleomycin A2 (Cu-free form), used as standard, to be 1,000 mcg/mg.

[1] = system: Mycobacterium smegmatis ATCC 607; assay: Antimicrobial activity, agar plate-cylinder method; type: cell-based; settings: Cu-free form; bleomycin A2 (Cu-free form) standard assumed 1,000 mcg/mg
Method: as §1

Hela S3 cells = assay: Growth inhibitory activity against Hela S3 cells; type: cell-based; settings: Cu-free form; Hela S3, 3 days incubation with compound
Method: The percentage growth inhibition was calculated using the equation: […] wherein A is the ultimate number of cells on the third day from the addition of a test sample, B is the ultimate number of cells in the control (without the addition of test sample), and C is the number of cells on the day of addition of the test sample.

ICR strain mice = assay: Pulmonary toxicity (pulmonary fibrosis) in mice, intraperitoneal injection; type: in vivo; settings: 5 mg/kg i.p. once a day for 10 days; for Grade of pulmonary fibrosis, % / Incidence of pulmonary fibrosis, % / Incidence: number of mice suffering from pulmonary fibrosis / Grade: total score of pulmonary fibrosis/total number of test animal: autopsy after 5 weeks; for Incidence: number of mice suffering from pulmonary fibrosis: affected/total mice; for Grade: total score of pulmonary fibrosis/total number of test animal: score 0-6 points; for Grade of pulmonary fibrosis, Ratio / Incidence of pulmonary fibrosis, Ratio: reference of the ratio not stated
Method in brief: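 Male ICR mice, 15 weeks old, 9 per group, received 5 mg/kg intraperitoneally once daily for 10 days. They were autopsied after 5 weeks' observation for pulmonary fibrosis incidence and grade: 1, alveolar exudate/septal fibrosis-like change; 2, fibrosis in several areas; 4, scattered fibrosis; 6, fibrosis over >2/3 of area.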

[2] = system: Lymphocytic leukemia P-388; assay: In vivo antitumor activity, murine lymphocytic leukemia P-388; settings: BDF1-SLC mice, i.p. transplant, once daily for 9 days, 30 days observation; T/C more than 130 effective
Method: The following data with respect to the testing of a group of the presently claimed substances in vivo according to a standard test method involving murine lymphocytic leukemia P-388 is presented to lend further assurance as to the utility of the compounds as inhibitors of mammalian tumors.
Lymphocytic leukemia P-388 cells (1×10^5 /0.2 ml) were transplanted intraperitoneally into male BDF1 -SLC mice (5 mice/group). Each of the compounds of this invention was diluted with physiological saline to various concentrations. Each dilution was administered at a dose of 0.1 ml/10 g of body weight once daily for 9 days, starting on the day after the day of the transplantation. The mice of the control group were administered physiological saline.
The average number of days that the group receiving the compound of this invention survived was calculated. The figure obtained was divided by the average number of survival days for the control group, and was multiplied by 100 (T/C (%)).
T/C value more than 130 was considered to be effective.

ICR mice = assay: Pulmonary toxicity (pulmonary fibrosis) in mice, intratracheal instillation; type: in vivo; settings: 16 μg/50 μl/mouse intratracheally, sacrificed 4 weeks after instillation; for Grade: total score of pulmonary fibrosis/total number of samples: score 0-6 points
Method: Male 15 weeks old ICR mice were used. Sixteen μg/50 μl/mouse of each test sample was intratracheally instilled. The mice were sacrificed 4 weeks after instillation to examine the incidence and grade of pulmonary fibrosis. The evaluation was made by comparing the number of administered mice suffering from pulmonary fibrosis and the grade of the disease.
In Tables 4A and 4B, the grade was numerically rated as follows:
1 point: Accumulation of exudate in pulmonary alveoli and fibrosis-like change in alveolar septum.
2 points: Fibrosis in several areas.
4 points: Scattered fibrosis.
6 points: Fibrosis in more than two-thirds of the total area.

Row | Structure (SMILES) | Antimicrobial potency of Cu--free compound, against Bacillus subtilis (Bacillus subtilis) [mcg potency per mg] | Antimicrobial potency of Cu--free compound, against Mycobacterium smegmatis ATCC 607 [1] [mcg potency per mg] | 50% growth inhibition concentration (ID50) of Cu--free compound against cultured Hela cell (Hela S3 cells) [µg/mL] | Grade of pulmonary fibrosis, % (ICR strain mice) [%] | Incidence of pulmonary fibrosis, % (ICR strain mice) [%] | Incidence: number of mice suffering from pulmonary fibrosis (ICR strain mice) | Grade: total score of pulmonary fibrosis/total number of test animal (ICR strain mice) | Grade of pulmonary fibrosis, Ratio (ICR strain mice) | Incidence of pulmonary fibrosis, Ratio (ICR strain mice) | Max. T/C on Mouse Lymphocytic Leukemia P 388 [2] [%] | Grade of pulmonary fibrosis, % (ICR mice) [%] | Incidence of pulmonary fibrosis, % (ICR mice) [%] | Incidence: number of mice with pulmonary fibrosis/number of mice (ICR mice) | Grade: total score of pulmonary fibrosis/total number of samples (ICR mice)
1 | Cc1c(N)nc(C(CC(N)=O)NCC(N)C(N)=O)nc1C(=O)NC(C(=O)NC(C)C(O)C(C)C(=O)NC(C(=O)NCCc1nc(-c2nc(C(=O)NCCCN(C)CCCN(Cc3ccccc3)Cc3ccccc3)cs2)cs1)C(C)O)C(OC1OC(CO)C(O)C(O)C1OC1OC(CO)C(O)C(OC(N)=O)C1O)c1cnc[nH]1 (centres unmarked) [compound 27, 3-{N--Methyl-N--[3'-(dibenzylamino)propyl]amino}propylaminoBLM] | 1138 | 14194 | 0.89 | 7 | 20 | 1/5 | 1/15 | 0.08 | 0.32 | 149 | 7 | 22 | 2/9 | 2/27
2 | Cc1c(N)nc(C(CC(N)=O)NCC(N)C(N)=O)nc1C(=O)NC(C(=O)NC(C)C(O)C(C)C(=O)NC(C(=O)NCCc1nc(-c2nc(C(=O)NCCCN(C)CCCNCc3ccc(OCc4ccccc4)c(OCc4ccccc4)c3)cs2)cs1)C(C)O)C(OC1OC(CO)C(O)C(O)C1OC1OC(CO)C(O)C(OC(N)=O)C1O)c1cnc[nH]1 (centres unmarked) [compound 15] | 1772 | 4516 | 0.36 | 4 | 11 | 1/9 | 1/27 | 0.05 | 0.18 | 165 | 4 | 13 | 1/8 | 1/24
3 | CCCC[N+](CCCC)(CCCNC(=O)c1csc(-c2csc(CCNC(=O)C(NC(=O)C(C)C(O)C(C)NC(=O)C(NC(=O)c3nc(C(CC(N)=O)NCC(N)C(N)=O)nc(N)c3C)C(OC3OC(CO)C(O)C(O)C3OC3OC(CO)C(O)C(OC(N)=O)C3O)c3cnc[nH]3)C(C)O)n2)n1)CCCN(Cc1ccccc1)Cc1ccccc1 (centres unmarked) [compound 38, 3-{N,N--Dibutyl-N--[3'-(dibenzylamino)propyl]amino}propylaminoBLM] | 530 | 17910 | 2.00 | 0 | 0 | 0/9 | 0/27 | 0.00 | 0.00 | 156 |  |  |  | 
